# Counter-ions that a name gives are not always drawn. Like-named read-outs stand apart in the source and are kept apart here. Peptide text beside a SMILES is read from it.
# Tests used:
# [1] = tested on: NCI-H292 lung cancer cells; assay: FDA drug screening, complete media vs cholesterol-free media with simvastatin (TABLE 2); type: cell-based, human
# [2] = tested on: NCI-H292 lung cancer cells; assay: FDA drug screening, complete media vs cholesterol-free media without statin (TABLE 1); type: cell-based, human
# [3] = NCI-H292 cells, FDA library drug in cholesterol-free media with simvastatin 0.04 μM
# [4] = NCI-H292 cells, FDA library drug in complete media
# [5] = complete media vs cholesterol-free media + simvastatin (0.04 μM), >0 enhanced anti-cancer activity, about 0 neutral, <0 antagonist
# [6] = Complete minus Cholesterol-free, >0 enhanced anti-cancer activity, about 0 neutral, <0 antagonist
# [7] = NCI-H292 cells, cholesterol-free media without statin
# [8] = Complete minus Cholesterol-free, greater than 0 enhanced anti-cancer activity, about 0 neutral, below 0 antagonist
# [9] = NCI-H292 cells, FDA drug library screen, cholesterol-free media without statin
# [10] = NCI-H292 cells, FDA drug library screen, complete media
# [11] = NCI-H292 cells, FDA drug library screen, cholesterol-free media with simvastatin 0.04 μM
# [12] = Complete minus Cholesterol-free, greater than 0 enhanced anti-cancer activity, about 0 neutral, below 0 antagonists
# [13] = NCI-H292 cells in cholesterol-free media without statin
# [14] = NCI-H292 cells in complete media
# [15] = NCI-H292 cells, cholesterol-free media with simvastatin 0.04 μM, cell growth value in FDA drug screen
# [16] = NCI-H292 cells, complete media, cell growth value in FDA drug screen
# [17] = complete media minus cholesterol-free media + simvastatin, >0 enhanced anti-cancer activity, about 0 neutral, <0 antagonist
# [18] = NCI-H292 cells, cholesterol-free media without statin, FDA drug library screen
# [19] = NCI-H292 cells, complete media, FDA drug library screen
# [20] = NCI-H292 cells, drug in cholesterol-free media with simvastatin 0.04 μM
# [21] = NCI-H292 cells, drug in complete media
# [22] = complete vs cholesterol-free media, >0 enhanced anti-cancer activity, about 0 neutral, <0 antagonist
# [23] = NCI-H292 cells, cholesterol-free media with simvastatin 0.04 μM, FDA drug library screen (TABLE 2)
# [24] = NCI-H292 cells, complete media, FDA drug library screen (TABLE 2)
# [25] = complete media minus cholesterol-free media + simvastatin (0.04 μM), >0 enhanced anti-cancer activity, about 0 neutral, <0 antagonist
# [26] = complete media vs cholesterol-free media + simvastatin (0.04 μM), […]
# [27] = Complete minus Cholesterol-free, […]
compound,measurement,setting,value
N#Cc1ccc(C2CCCc3cncn32)cc1 (stereo not drawn) [Fadrozole],Cholesterol-free media + simvastatin (0.04 μM),[1],1.426
same,Complete Media,[1],1.038
same,Difference,[1],−0.39
same,Cholesterol-free,[2],0.5349
same,Complete,[2],1.016
same,Difference,[2],0.48
CC(=O)OCC(CCn1cnc2cnc(N)nc21)COC(C)=O [Famciclovir],Cholesterol-free media + simvastatin (0.04 μM),[1]; [3],1.597
same,Complete Media,[1]; [4],1.161
same,Difference,[1]; [5],−0.44
same,Difference,[2]; [6],−0.27
same,Cholesterol-free,[2]; [7],1.022
same,Complete,"[2]; NCI-H292 cells, complete media",0.7509
NC(N)=Nc1nc(CSCCC(N)=NS(N)(=O)=O)cs1 [Famotidine],Cholesterol-free media + simvastatin (0.04 μM),[1]; [3],1.666
same,Complete Media,[1]; [4],1.298
same,Difference,[1]; [5],−0.37
same,Difference,[2]; [8],−0.07
same,Cholesterol-free,[2]; [9],1.016
same,Complete,[2]; [10],0.9424
Cc1oc(=O)oc1COC(=O)C1=C([C@H]2CCCO2)S[C@@H]2[C@@H]([C@@H](C)O)C(=O)N12 [Faropenem daloxate],Cholesterol-free media + simvastatin (0.04 μM),[1]; [11],1.071
same,Complete Media,[1]; [10],0.9664
same,Difference,[1]; [5],−0.10
same,Difference,[2]; [12],−0.54
same,Cholesterol-free,[2]; [13],1.449
same,Complete,[2]; [14],0.9042
C[C@@H](O)[C@H]1C(=O)N2C(C(=O)O)=C([C@H]3CCCO3)S[C@H]12 [Faropenem sodium],Cholesterol-free media + simvastatin (0.04 μM),[1]; [15],0.9421
same,Complete Media,[1]; [16],0.984
same,Difference,[1]; [17],0.04
same,Difference,[2]; [6],−0.02
same,Cholesterol-free,[2]; [18],0.8692
same,Complete,[2]; [19],0.8522
O=S(=O)(c1cccc2cnccc12)N1CCCNCC1 [Fasudil (Hydrochloride)],Cholesterol-free media + simvastatin (0.04 μM),[1]; [11],0.9921
same,Complete Media,[1]; [10],1.233
same,Difference,[1]; [17],0.24
same,Difference,[2]; [8],−0.12
same,Cholesterol-free,[2]; [9],1.121
same,Complete,[2]; [10],1
NC(=O)c1nc(F)c[nH]c1=O [Favipiravir],Cholesterol-free media + simvastatin (0.04 μM),[1]; [20],1.347
same,Complete Media,[1]; [21],1.105
same,Difference,[1]; [5],−0.24
same,Difference,[2]; [6],−0.06
same,Cholesterol-free,[2]; [18],1.059
same,Complete,[2]; [19],0.9966
Cc1nc(-c2ccc(OCC(C)C)c(C#N)c2)sc1C(=O)O [Febuxostat],Cholesterol-free media + simvastatin (0.04 μM),[1]; [11],1.155
same,Complete Media,[1]; [10],1.036
same,Difference,[1]; [5],−0.12
same,Cholesterol-free,[2]; [18],0.955
same,Complete,[2]; [19],1.415
same,Difference,[2]; [22],0.46
Cc1cnc(Nc2ccc(OCCN3CCCC3)cc2)nc1Nc1cccc(S(=O)(=O)NC(C)(C)C)c1 [Fedratinib (hydrochloride hydrate)],Cholesterol-free media + simvastatin (0.04 μM),[1]; [20],0.6402
same,Complete Media,[1]; [21],0.3774
same,Difference,[1]; [5],−0.26
same,Difference,[2]; [8],−0.13
same,Cholesterol-free,[2]; [9],0.469
same,Complete,[2]; [10],0.341
Cc1cnc(Nc2ccc(OCCN3CCCC3)cc2)nc1Nc1cccc(S(=O)(=O)NC(C)(C)C)c1 [Fedratinib],Cholesterol-free media + simvastatin (0.04 μM),[1]; [3],0.6759
same,Complete Media,[1]; [4],0.284
same,Difference,[1]; [5],−0.39
same,Difference,[2]; [6],−0.27
same,Cholesterol-free,[2]; [7],0.5626
same,Complete,"[2]; NCI-H292 cells, complete media",0.2926
NC(=O)OCC(COC(N)=O)c1ccccc1 [Felbamate],Cholesterol-free media + simvastatin (0.04 μM),[1]; [20],1.169
same,Complete Media,[1]; [21],0.9237
same,Difference,[1]; [5],−0.25
same,Cholesterol-free,[2]; [18],0.9609
same,Complete,[2]; [19],1.103
same,Difference,[2]; [22],0.14
O=C(O)Cc1ccc(-c2ccccc2)cc1 [Felbinac],Cholesterol-free media + simvastatin (0.04 μM),[1]; [23],1.215
same,Complete Media,[1]; [24],1.199
same,Difference,[1]; [25],−0.02
same,Cholesterol-free,[2]; [18],0.7335
same,Complete,[2]; [19],1.335
same,Difference,[2]; [22],0.60
CCOC(=O)C1=C(C)NC(C)=C(C(=O)OC)C1c1cccc(Cl)c1Cl (stereo not drawn) [Felodipine],Cholesterol-free media + simvastatin (0.04 μM),[1]; [20],1.148
same,Complete Media,[1]; [21],0.9051
same,Difference,[1]; [5],−0.24
same,Difference,[2]; [6],−0.19
same,Cholesterol-free,[2]; [7],1.202
same,Complete,"[2]; NCI-H292 cells, complete media",1.01
"NCCCC[C@H](NC(=O)[C@@H]1CCCN1C(=O)[C@@H]1CSSC[C@H](N)C(=O)N[C@@H](Cc2ccccc2)C(=O)N[C@@H](Cc2ccccc2)C(=O)N[C@@H](CCC(N)=O)C(=O)N[C@@H](CC(N)=O)C(=O)N1)C(=O)NCC(N)=O [Felypressin] (HELM PEPTIDE1{C.F.F.Q.N.C.P.K.G.[am]}$PEPTIDE1,PEPTIDE1,1:R3-6:R3$$$V2.0)",Cholesterol-free media + simvastatin (0.04 μM),[1],1.091
same,Complete Media,[1],0.9792
same,Difference,[1],−0.11
same,Cholesterol-free,[2],0.991
same,Complete,[2],0.8009
same,Difference,[2],−0.19
O=C(O)CCC(=O)c1ccc(-c2ccccc2)cc1 [Fenbufen],Cholesterol-free media + simvastatin (0.04 μM),[1]; [15],0.8759
same,Complete Media,[1]; [16],0.8928
same,Difference,[1]; [17],0.02
same,Difference,[2]; [12],−0.96
same,Cholesterol-free,[2]; [13],1.772
same,Complete,[2]; [14],0.811
COP(=S)(OC)Oc1ccc([N+](=O)[O-])c(C)c1 [Fenitrothion],Cholesterol-free media + simvastatin (0.04 μM),[1]; [11],1.585
same,Complete Media,[1]; [10],1.426
same,Difference,[1]; [26],−0.16
same,Difference,[2]; [27],−0.22
same,Cholesterol-free,[2]; [7],0.8622
same,Complete,"[2]; NCI-H292 cells, complete media",0.6445
CC(C)OC(=O)C(C)(C)Oc1ccc(C(=O)c2ccc(Cl)cc2)cc1 [Fenofibrate],Cholesterol-free media + simvastatin (0.04 μM),[1]; [20],1.641
same,Complete Media,[1]; [21],1.401
same,Difference,[1]; [5],−0.24
same,Difference,[2]; [6],−0.06
same,Cholesterol-free,[2]; [18],0.8551
same,Complete,[2]; [19],0.7932
CC(C)(Oc1ccc(C(=O)c2ccc(Cl)cc2)cc1)C(=O)O [Fenofibric acid],Cholesterol-free media + simvastatin (0.04 μM),[1]; [15],0.9473
same,Complete Media,[1]; [16],1.061
same,Difference,[1]; [17],0.11
same,Cholesterol-free,[2]; [7],1.435
same,Complete,"[2]; NCI-H292 cells, complete media",1.058
same,Difference,"[2]; complete vs cholesterol-free media, greater than 0 enhanced anti-cancer activity, about 0 neutral, below 0 antagonists",−0.38
CC(C(=O)O)c1cccc(Oc2ccccc2)c1 (stereo not drawn) [Fenoprofen (Calcium hydrate)],Cholesterol-free media + simvastatin (0.04 μM),[1]; [20],1.224
same,Complete Media,[1]; [21],1.032
same,Difference,[1]; [5],−0.19
same,Difference,[2]; [6],−0.23
same,Cholesterol-free,[2]; [7],1.081
same,Complete,"[2]; NCI-H292 cells, complete media",0.8539
CC(Cc1ccc(O)cc1)NCC(O)c1cc(O)cc(O)c1 (stereo not drawn) [Fenoterol (hydrobromide)],Cholesterol-free media + simvastatin (0.04 μM),[1]; [23],0.9531
same,Complete Media,[1]; [24],0.9512
same,Difference,"[1]; complete media minus cholesterol-free media + simvastatin (0.04 μM), […]",0.00
same,Difference,[2]; [27],−0.09
same,Cholesterol-free,[2]; [9],1.404
same,Complete,[2]; [10],1.311
O=C1NCC2(CCN(CCc3ccccc3)CC2)O1 [Fenspiride (Hydrochloride)],Cholesterol-free media + simvastatin (0.04 μM),[1]; [20],1.105
same,Complete Media,[1]; [21],0.9138
same,Difference,[1]; [5],−0.19
same,Cholesterol-free,[2]; [18],0.597
same,Complete,[2]; [19],0.752
same,Difference,[2]; [22],0.15
CCNC(=O)[C@@H]1CCCN1C(=O)[C@H](CCCNC(=N)N)NC(=O)[C@H](CC(C)C)NC(=O)CNC(=O)[C@H](Cc1ccc(O)cc1)NC(=O)[C@H](CO)NC(=O)[C@H](Cc1c[nH]c2ccccc12)NC(=O)[C@H](Cc1c[nH]cn1)NC(=O)[C@@H]1CCC(=O)N1 [Fertirelin] (HELM PEPTIDE1{[Glp].H.W.S.Y.G.L.R.P.[CCN[*:1]]}$$$$V2.0),Cholesterol-free media + simvastatin (0.04 μM),[1]; [20],1.367
same,Complete Media,[1]; [21],1.138
same,Difference,[1]; [26],−0.23
same,Difference,[2]; [27],−0.12
same,Cholesterol-free,[2]; [9],0.9867
same,Complete,[2]; [10],0.8642
COc1cc(/C=C/C(=O)O)ccc1O.[Na] [Ferulic acid (sodium)],Cholesterol-free media + simvastatin (0.04 μM),[1]; [23],0.806
same,Complete Media,[1]; [24],0.766
same,Difference,[1]; [25],−0.04
same,Cholesterol-free,[2]; [18],1.137
same,Complete,[2]; [19],1.309
same,Difference,[2]; [22],0.17
COc1cc(/C=C/C(=O)O)ccc1O [Ferulic acid],Cholesterol-free media + simvastatin (0.04 μM),[1]; [3],1.055
same,Complete Media,[1]; [4],0.7118
same,Difference,[1]; [5],−0.34
same,Difference,[2]; [6],−0.23
same,Cholesterol-free,[2]; [7],1.087
same,Complete,"[2]; NCI-H292 cells, complete media",0.8516
CC(C)C(=O)Oc1ccc(CO)cc1[C@H](CCN(C(C)C)C(C)C)c1ccccc1 [Fesoterodine (L-mandelate)],Cholesterol-free media + simvastatin (0.04 μM),[1]; [11],1.103
same,Complete Media,[1]; [10],0.9892
same,Difference,[1]; [5],−0.11
same,Cholesterol-free,[2]; [18],0.7419
same,Complete,[2]; [19],1.264
same,Difference,[2]; [22],0.52
CC(C)C(=O)Oc1ccc(CO)cc1[C@H](CCN(C(C)C)C(C)C)c1ccccc1 [Fesoterodine],Cholesterol-free media + simvastatin (0.04 μM),[1]; [3],1.104
same,Complete Media,[1]; [4],0.8265
same,Difference,[1]; [5],−0.28
same,Cholesterol-free,[2]; [18],0.8973
same,Complete,[2]; [19],1.535
same,Difference,[2]; [22],0.64
CC(C)(C(=O)O)c1ccc(C(O)CCCN2CCC(C(O)(c3ccccc3)c3ccccc3)CC2)cc1 (stereo not drawn) [Fexofenadine (hydrochloride)],Cholesterol-free media + simvastatin (0.04 μM),[1]; [3],1.402
same,Complete Media,[1]; [4],1.104
same,Difference,[1]; [5],−0.30
same,Difference,[2]; [6],−0.02
same,Cholesterol-free,[2]; [18],1.052
same,Complete,[2]; [19],1.034

# — patent US20250144067A1, “PERSONALIZED STARVATION THERAPY FOR CANCER” (Faeth Therapeutics, Inc., priority 2021, published 2025)
